Test results published in patent publication US5348946A, “Heteroanthracycline antitumor analogs” (Biochem Immunosystems, Inc., priority 1991, dated 1994).

Tests used:
Format in all cases: cell-based
SF-268 = assay: in vitro cytotoxicity evaluation, CNS Cancer; settings: Homo sapiens, 48 h, SF-268, two days, sulforhodamine B
Procedure: (§1) These assays were carried out at the Developmental Therapeutics Program, Division of Cancer Treatment, National Cancer Institute (Bethesda, Md., USA). The method consists of incubating varying concentrations of the drug with an inoculum of cells for two days.
(§2) It should be noted that the first two parameters (GI50 and TGI) relate to antiproliferation effects while the third one (LC50) indicates true cytotoxicity.

SF-295 = assay: in vitro cytotoxicity evaluation, CNS Cancer; settings: Homo sapiens, 48 h, SF-295, two days, sulforhodamine B
Procedure: as §1, §2

SNB-78 = assay: in vitro cytotoxicity evaluation, CNS Cancer; settings: Homo sapiens, 48 h, SNB-78, two days, sulforhodamine B
Procedure: as §1, §2

SNB-75 = assay: in vitro cytotoxicity evaluation, CNS Cancer; settings: Homo sapiens, 48 h, SNB-75, two days, sulforhodamine B
Procedure: as §1, §2

U251 = assay: in vitro cytotoxicity evaluation, CNS Cancer; settings: Homo sapiens, U-251, 48 h, U251, two days, sulforhodamine B
Procedure: as §1, §2

SNB-19 = assay: in vitro cytotoxicity evaluation, CNS Cancer; settings: Homo sapiens, 48 h, SNB-19, two days, sulforhodamine B
Procedure: as §1, §2

HCT-15 = assay: in vitro cytotoxicity evaluation, Colon Cancer; settings: Homo sapiens, 48 h, HCT-15, two days, sulforhodamine B
Procedure: as §1, §2

Colo 205 = assay: in vitro cytotoxicity evaluation, Colon Cancer; settings: Homo sapiens, 48 h, Colo 205, two days, sulforhodamine B
Procedure: as §1, §2

DLD-1 = assay: in vitro cytotoxicity evaluation, Colon Cancer; settings: Homo sapiens, 48 h, DLD-1, two days, sulforhodamine B
Procedure: as §1, §2

MK20L2 = assay: in vitro cytotoxicity evaluation, Colon Cancer; settings: Homo sapiens, 48 h, MK20L2, two days, sulforhodamine B
Procedure: as §1, §2

HT 29 = assay: in vitro cytotoxicity evaluation, Colon Cancer; settings: Homo sapiens, 48 h, HT 29, two days, sulforhodamine B
Procedure: as §1, §2

KM 12 = assay: in vitro cytotoxicity evaluation, Colon Cancer; settings: Homo sapiens, KM12, 48 h, KM 12, two days, sulforhodamine B
Procedure: as §1, §2

HCT-116 = assay: in vitro cytotoxicity evaluation, Colon Cancer; settings: Homo sapiens, 48 h, HCT-116, two days, sulforhodamine B
Procedure: as §1, §2

SW-620 = assay: in vitro cytotoxicity evaluation, Colon Cancer; settings: Homo sapiens, 48 h, SW-620, two days, sulforhodamine B
Procedure: as §1, §2

UO-31 = assay: in vitro cytotoxicity evaluation, Renal Cancer; settings: Homo sapiens, 48 h, UO-31, two days, sulforhodamine B
Procedure: as §1, §2

RXF-631 = assay: in vitro cytotoxicity evaluation, Renal Cancer; settings: Homo sapiens, 48 h, RXF-631, two days, sulforhodamine B
Procedure: as §1, §2

CAKI-1 = assay: in vitro cytotoxicity evaluation, Renal Cancer; settings: Homo sapiens, 48 h, CAKI-1, two days, sulforhodamine B
Procedure: as §1, §2

SN12C = assay: in vitro cytotoxicity evaluation, Renal Cancer; settings: Homo sapiens, 48 h, two days, sulforhodamine B
Procedure: as §1, §2

ACHN = assay: in vitro cytotoxicity evaluation, Renal Cancer; settings: Homo sapiens, 48 h, two days, sulforhodamine B
Procedure: as §1, §2

TK-10 = assay: in vitro cytotoxicity evaluation, Renal Cancer; settings: Homo sapiens, 48 h, TK-10, two days, sulforhodamine B
Procedure: as §1, §2

786-O = assay: in vitro cytotoxicity evaluation, Renal Cancer; settings: Homo sapiens, 786-0, 48 h, two days, sulforhodamine B
Procedure: as §1, §2

RXF-393 = assay: in vitro cytotoxicity evaluation, Renal Cancer; settings: Homo sapiens, 48 h, RXF-393, two days, sulforhodamine B
Procedure: as §1, §2

[1] = read-out: LOG10 G150 (GI50) (converted)
[2] = read-out: Log10 LC50 (converted)
[3] = read-out: Log10 TGI (converted)

Compound `COc1c2c(c(OC)c3c(=O)c4ccccc4sc13)CS(=O)(=O)[C@@H]2O[C@H]1C[C@H](N)[C@H](O)[C@H](C)O1` [BCH-255, (1S ) 1-daunosamine-4-11-dimethoxy-5-oxo-5-H-1,3-dihydrothioxantheno [2,3-c] thiophene-2,2-dioxide] has a GI50 (SF-268; [1]) of 20.9 µM, a CC50 (SF-268; [2]) of over 100 µM and an IC (total growth inhibition (TGI)) (SF-268; [3]) of 52.5 µM. For the same compound, the GI50 (SF-295; [1]) was 16.2 µM, the CC50 (SF-295; [2]) was 63.1 µM and the IC (total growth inhibition (TGI)) (SF-295; [3]) was 32.4 µM. The GI50 (SNB-78; [1]) was 20.4 µM, the CC50 (SNB-78; [2]) was 91.2 µM and the IC (total growth inhibition (TGI)) (SNB-78; [3]) was 42.7 µM. It also gave a GI50 (SNB-75; [1]) of 15.8 µM, a CC50 (SNB-75; [2]) of 57.5 µM and an IC (total growth inhibition (TGI)) (SNB-75; [3]) of 30.2 µM. The GI50 (U251; [1]) was 17.4 µM, the CC50 (U251; [2]) was 56.2 µM and the IC (total growth inhibition (TGI)) (U251; [3]) was 31.6 µM. It also gave a GI50 (SNB-19; [1]) of 30.9 µM, a CC50 (SNB-19; [2]) of over 100 µM and an IC (total growth inhibition (TGI)) (SNB-19; read-out: Log10 TGI) of over 100 µM. The GI50 (HCT-15; [1]) was 19.1 µM, the CC50 (HCT-15; [2]) was 95.5 µM and the IC (total growth inhibition (TGI)) (HCT-15; [3]) was 42.7 µM. The GI50 (Colo 205; [1]) was 17.8 µM, the CC50 (Colo 205; [2]) was 77.6 µM and the IC (total growth inhibition (TGI)) (Colo 205; [3]) was 37.2 µM. The GI50 (DLD-1; [1]) was 24.5 µM, the LC50 (DLD-1; [2]) was over 100 µM and the IC (total growth inhibition (TGI)) (DLD-1; [3]) was 67.6 µM. For the same compound, the GI50 (MK20L2; [1]) was 17 µM, the CC50 (MK20L2; [2]) was 57.5 µM and the IC (total growth inhibition (TGI)) (MK20L2; [3]) was 30.9 µM. It also gave a GI50 (HT 29; [1]) of 17.8 µM, a CC50 (HT 29; [2]) of 61.7 µM and an IC (total growth inhibition (TGI)) (HT 29; [3]) of 33.1 µM. The GI50 (KM 12; [1]) was 18.2 µM, the CC50 (KM 12; [2]) was 87.1 µM and the IC (total growth inhibition (TGI)) (KM 12; [3]) was 39.8 µM. The GI50 (HCT-116; [1]) was 20.4 µM, the CC50 (HCT-116; [2]) was 75.9 µM and the IC (total growth inhibition (TGI)) (HCT-116; [3]) was 39.8 µM. It also gave a GI50 (SW-620; [1]) of 20.4 µM, a CC50 (SW-620; [2]) of 67.6 µM and an IC (total growth inhibition (TGI)) (SW-620; [3]) of 37.2 µM. It also gave a GI50 (UO-31; [1]) of 19.5 µM, a CC50 (UO-31; [2]) of 91.2 µM and an IC (total growth inhibition (TGI)) (UO-31; [3]) of 42.7 µM. For the same compound, the GI50 (RXF-631; [1]) was 20 µM, the CC50 (RXF-631; [2]) was over 100 µM and the IC (total growth inhibition (TGI)) (RXF-631; [3]) was 46.8 µM. For the same compound, the GI50 (CAKI-1; [1]) was 19.5 µM, the CC50 (CAKI-1; [2]) was 74.1 µM and the IC (total growth inhibition (TGI)) (CAKI-1; [3]) was 38 µM. It also gave a GI50 (SN12C; [1]) of 18.2 µM, a CC50 (SN12C; [2]) of 72.4 µM and an IC (total growth inhibition (TGI)) (SN12C; [3]) of 36.3 µM. For the same compound, the GI50 (ACHN; [1]) was 17.4 µM, the CC50 (ACHN; [2]) was 61.7 µM and the IC (total growth inhibition (TGI)) (ACHN; [3]) was 32.4 µM. For the same compound, the GI50 (TK-10; [1]) was 25.7 µM, the CC50 (TK-10; [2]) was 77.6 µM and the IC (total growth inhibition (TGI)) (TK-10; [3]) was 44.7 µM. It also gave a GI50 (786-O; [1]) of 16.2 µM, a CC50 (786-O; [2]) of 58.9 µM and an IC (total growth inhibition (TGI)) (786-O; [3]) of 30.9 µM. The GI50 (RXF-393; [1]) was 17 µM, the CC50 (RXF-393; [2]) was 72.4 µM and the IC (total growth inhibition (TGI)) (RXF-393; [3]) was 35.5 µM.
